Results: publication PMC6804243, “Small-Molecule Inhibition of UBE2T/FANCL-Mediated Ubiquitylation in the Fanconi Anemia Pathway” (ACS Chemical Biology, 2019)

System: U2OS cells
Assay: Cell cycle analysis based on EdU incorporation
Conditions: for S-phase indices: CU1 200 μM or CU2 500 μM
Procedure: Figure 3 Cell-based assays with CU1 and CU2: (a) Western blot showing that the formation of mUb-FANCD2(*), in response to HU treatment (2.5 mM, 8 h), is impaired in U2OS cells in the presence of CU1 (200 μM) or CU2 (500 μM). Ratio = mUb-FANCD2/FANCD2 (normalized to DMSO control). mUb-FANCD2 was resolved on a separate gel. PARP1 was used as a loading control for each gel, as well as to assess apoptosis. (b) Quantification of the reduction in mUb-FANCD2, in response to HU treatment (2.5 mM, 8 h) in the presence of CU1 (200 μM) or CU2 (500 μM). Mean calculated from three independent experiments. (c) Western blot showing that formation of mUb-FANCD2 (denoted by an asterisk symbol, *) in response to cisplatin treatment (10 μM) for 6, 12, and 24 h is impaired in U2OS cells in the presence of CU2 (500 μM). Ratio = mUb-FANCD2/FANCD2 (normalized to DMSO control). (d) Cell cycle analyses based upon EdU incorporation in cells treated with HU (2.5 mM, 8 h) in the presence or absence of CU1 (200 μM) or CU2 (500 μM). HU treatment was used for gating purposes. […] TEXT PRINTED IN THE PICTURE: (d) DMSO: S-phase 42.7; G1 29.2; G2-M 27.8 | (d) HU: S-phase 0.24; G1 72.4; G2-M 22.9 | (d) CU1: S-phase 43.4; G1 26.8; G2-M 29.1 | (d) CU2: S-phase 39.7; G1 31.9; G2-M 28.2 DOUBTS OF THE COPYIST ABOUT THIS PICTURE: Panel d print is small, so these digits are best readings: DMSO G2-M 27.8 (8 or 6); CU1 G1 26.8 (6 or 8); CU2 S-phase 39.7 (9 or 8); CU2 G2-M 28.2 (8 or 6) / Panels a and c: the lane ratios printed under the western blots (a: 1.0, 0.64, 0.40; c: 1.0/0.65, 1.0/0.63, 1.0/0.53) were left out because they belong to blots and the picture prints no measure for them […]
As DNA damage induced by HU is cell-cycle-dependent, it was necessary to establish whether CU1 and CU2 might simply prevent cells from entering the S-phase, which would also manifest itself as a reduction in mUb-FANCD2. This was determined by analysis of several biomarkers linked to DNA damage in cycling cells. […]

Structure (SMILES)	S-phase indices	EdU incorporation intensity (CU1 200 μM)
CCN1CCN(c2cc(C)nc3nc(CN4CCCCC4C)nn23)CC1 (stereo not drawn) [CU2]	no reduction in S-phase indices	–
NCCN1C(=O)CC[C@H]2CN(Cc3cccc(-c4ccco4)c3)CC[C@H]21 [CU1]	no reduction in S-phase indices	slightly lower
